Measured values taken from ChEMBL document CHEMBL3526149, “Brain tissue binding of drugs: evaluation and validation of solid supported porcine brain membrane vesicles (TRANSIL) as a novel high-throughput method” (Drug Metab Dispos, 2011).
pKd: −log10 of the molar value.

Columns and labels:
[1] = Ratio, ratio of fraction unbound in solid supported porcine brain membrane vesicles at 5 uM dosed as discrete compounds after 5 hrs by TRANSIL assay to fraction unbound in solid supported porcine brain membrane vesicles at 5 uM using four compound cocktail after 5 hrs by TRANSIL assay; type: ADME, Sus scrofa; details: pig
[2] = Percentage unbound in solid supported porcine brain membrane vesicles at 5 uM by TRANSIL assay; details: pig
[3] = Ratio of fraction unbound in Wistar rat brain homogenate at 5 uM after 5 hrs by equilibrium dialysis method to fraction unbound in solid supported porcine brain membrane vesicles at 5 uM by TRANSIL assay
[4] = Binding affinity to Wistar rat brain lipid by TRANSIL assay; type: ADME
[5] = Binding affinity to Wistar rat brain lipid assessed as percentage unbound by TRANSIL assay; type: ADME, tissue-based
[6] = Percentage unbound in solid supported porcine brain membrane vesicles at 5 uM using four compound cocktail after 5 hrs by TRANSIL assay; type: ADME, tissue-based, Sus scrofa; details: pig
Albumin = Albumin (Rattus norvegicus, UniProt P02770); assay: Binding affinity to Wistar rat serum albumin; type: ADME
Chain of Albumin (P02770 whole entry): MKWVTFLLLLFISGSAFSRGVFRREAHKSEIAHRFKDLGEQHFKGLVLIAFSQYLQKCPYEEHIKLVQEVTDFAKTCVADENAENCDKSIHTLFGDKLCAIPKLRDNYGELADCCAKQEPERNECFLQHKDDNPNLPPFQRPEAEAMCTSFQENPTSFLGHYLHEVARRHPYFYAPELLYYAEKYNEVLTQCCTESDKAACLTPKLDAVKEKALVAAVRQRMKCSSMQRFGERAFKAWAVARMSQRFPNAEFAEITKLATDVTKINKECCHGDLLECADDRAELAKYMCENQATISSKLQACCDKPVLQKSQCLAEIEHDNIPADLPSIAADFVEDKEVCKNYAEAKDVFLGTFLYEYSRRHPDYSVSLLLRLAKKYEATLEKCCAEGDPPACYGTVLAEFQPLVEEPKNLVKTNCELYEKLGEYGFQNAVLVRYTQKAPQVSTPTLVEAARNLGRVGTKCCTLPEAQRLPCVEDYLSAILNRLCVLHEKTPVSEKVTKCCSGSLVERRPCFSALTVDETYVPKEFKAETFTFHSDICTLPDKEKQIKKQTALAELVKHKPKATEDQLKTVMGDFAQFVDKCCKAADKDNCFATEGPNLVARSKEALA

[7] = Fraction unbound in Wistar rat brain homogenate at 5 uM after 5 hrs by equilibrium dialysis method
[8] = Ratio of fraction unbound in solid supported porcine brain membrane vesicles at 5 uM by TRANSIL assay to fraction unbound in Wistar rat brain homogenate at 5 uM after 5 hrs by equilibrium dialysis method; type: ADME, tissue-based
[9] = solid supported porcine brain membrane vesicles

CN(C)CCC=C1c2ccccc2CCc2ccccc21 [AMITRIPTYLINE]
Ratio ([1]; in vitro): 1
fraction unbound at 5 µM [2, 9]: 0.0073
Ratio [3]: 1.2
pKd [4]: 6.00
fraction unbound [5]: 0.0083
fraction unbound at 5 h, 5 µM [6]: 0.0071
pKd (Albumin): 3.87
fraction unbound at 5 h, 5 µM [7]: 0.009

CCCCN1CCCCC1C(=O)Nc1c(C)cccc1C (stereo not drawn) [BUPIVACAINE]
Ratio ([1]; in vitro): 0.9
fraction unbound at 5 µM [2, 9]: 0.17
Ratio [3]: 1.6
fraction unbound at 5 h, 5 µM [6]: 0.19
fraction unbound at 5 h, 5 µM [7]: 0.278

CC(NC(C)(C)C)C(=O)c1cccc(Cl)c1 (stereo not drawn) [BUPROPION]
Ratio [1]: 1.2
fraction unbound at 5 µM [2, 9]: 0.17
Ratio [3]: 1
fraction unbound at 5 h, 5 µM [6]: 0.14
fraction unbound at 5 h, 5 µM [7]: 0.17

Cn1c(=O)c2c(ncn2C)n(C)c1=O [CAFFEINE]
fraction unbound at 5 µM ([2]; Brain): 0.26
Ratio [3]: 2
fraction unbound at 5 h, 5 µM [7]: 0.52

NC(=O)N1c2ccccc2C=Cc2ccccc21 [CARBAMAZEPINE]
fraction unbound at 5 µM ([2]; Brain): 0.132
pKd [4]: 4.62
fraction unbound [5]: 0.168
fraction unbound at 5 h, 5 µM [6]: 0.26
fraction unbound at 5 h, 5 µM [7]: 0.119

CCCC(C)(COC(N)=O)COC(=O)NC(C)C (stereo not drawn) [CARISOPRODOL]
Ratio [8]: 1.5
fraction unbound at 5 µM [2, 9]: 0.295
fraction unbound at 5 h, 5 µM [7]: 0.202

CN(C)CCCN1c2ccccc2Sc2ccc(Cl)cc21 [CHLORPROMAZINE]
fraction unbound at 5 µM ([2]; Brain): 0.0022
pKd [4]: 6.74
fraction unbound [5]: 0.0015
fraction unbound at 5 h, 5 µM [7]: 0.002

CN1CCN(C2=Nc3cc(Cl)ccc3Nc3ccccc32)CC1 [CLOZAPINE]
Ratio ([1]; in vitro): 0.8
fraction unbound at 5 µM ([2]; Brain): 0.0072
Ratio [3]: 1.5
pKd [4]: 6.11
fraction unbound [5]: 0.0064
fraction unbound at 5 h, 5 µM [6]: 0.0092
pKd (Albumin): 4.10
fraction unbound at 5 h, 5 µM [7]: 0.011

CN(C)CCC=C1c2ccccc2C=Cc2ccccc21 [CYCLOBENZAPRINE]
Ratio [8]: 1.4
fraction unbound at 5 µM ([2]; Brain): 0.01
fraction unbound at 5 h, 5 µM [7]: 0.0073

CNCCC(Oc1ccc(C(F)(F)F)cc1)c1ccccc1 (stereo not drawn) [FLUOXETINE]
fraction unbound at 5 µM [2, 9]: 0.003
Ratio [3]: 1.3
pKd [4]: 6.49
fraction unbound [5]: 0.0027
pKd (Albumin): 4.44
fraction unbound at 5 h, 5 µM [7]: 0.004

O=C(CCCN1CCC(O)(c2ccc(Cl)cc2)CC1)c1ccc(F)cc1 [HALOPERIDOL]
Ratio ([1]; in vitro): 1
Ratio [8]: 1.3
fraction unbound at 5 µM ([2]; Brain): 0.014
pKd [4]: 5.81
fraction unbound [5]: 0.0129
fraction unbound at 5 h, 5 µM [6]: 0.014
pKd (Albumin): 4.01
fraction unbound at 5 h, 5 µM [7]: 0.011

OCCOCCN1CCN(C(c2ccccc2)c2ccc(Cl)cc2)CC1 (stereo not drawn) [HYDROXYZINE]
Ratio [8]: 2.1
fraction unbound at 5 µM ([2]; Brain): 0.021
fraction unbound at 5 h, 5 µM [7]: 0.0102

CC(C)Cc1ccc(C(C)C(=O)O)cc1 (stereo not drawn) [IBUPROFEN]
pKd [4]: 4.28

CCN(CC)CCNC(=O)c1cc(Cl)c(N)cc1OC [METOCLOPRAMIDE]
fraction unbound at 5 µM ([2]; Brain): 0.295
pKd [4]: 4.05
fraction unbound [5]: 0.426
fraction unbound at 5 h, 5 µM [7]: 0.36

Cc1ncc2n1-c1ccc(Cl)cc1C(c1ccccc1F)=NC2 [MIDAZOLAM]
Ratio [1]: 1.1
Ratio [8]: 1.8
fraction unbound at 5 µM ([2]; Brain): 0.041
fraction unbound at 5 h, 5 µM [6]: 0.037
fraction unbound at 5 h, 5 µM [7]: 0.023

CNCCC=C1c2ccccc2CCc2ccccc21 [NORTRIPTYLINE]
fraction unbound at 5 µM ([2]; Brain): 0.004
Ratio [3]: 1.2
fraction unbound at 5 h, 5 µM [7]: 0.0046

Fc1ccc([C@@H]2CCNC[C@H]2COc2ccc3c(c2)OCO3)cc1 [PAROXETINE]
fraction unbound at 5 µM ([2]; Brain): 0.0026
Ratio [3]: 1.5
fraction unbound at 5 h, 5 µM [7]: 0.0039

O=C1NC(=O)C(c2ccccc2)(c2ccccc2)N1 [PHENYTOIN]
fraction unbound at 5 µM ([2]; Brain): 0.047
Ratio [3]: 1.7
fraction unbound at 5 h, 5 µM [7]: 0.081

CC(C)NCC(O)COc1cccc2ccccc12 (stereo not drawn) [PROPRANOLOL]
Ratio ([1]; in vitro): 1
fraction unbound at 5 µM [2, 9]: 0.02
Ratio [3]: 1.5
fraction unbound at 5 h, 5 µM [6]: 0.02
fraction unbound at 5 h, 5 µM [7]: 0.03

Cc1nc2n(c(=O)c1CCN1CCC(c3noc4cc(F)ccc34)CC1)CCCC2 [RISPERIDONE]
fraction unbound at 5 µM ([2]; Brain): 0.057
fraction unbound [5]: 0.121
pKd (Albumin): 4.36

CCN1CCCC1CNC(=O)c1cc(S(N)(=O)=O)ccc1OC (stereo not drawn) [SULPIRIDE]
fraction unbound at 5 µM ([2]; Brain): 0.24
Ratio [3]: 2.6
fraction unbound at 5 h, 5 µM [7]: 0.63

CSc1ccc2c(c1)N(CCC1CCCCN1C)c1ccccc1S2 (stereo not drawn) [THIORIDAZINE]
fraction unbound at 5 µM ([2]; Brain): 0.0003
Ratio [3]: 3.3
pKd [4]: 6.43
fraction unbound [5]: 0.0031
pKd (Albumin): 5.17
fraction unbound at 5 h, 5 µM [7]: 0.001

O=c1n(CCCN2CCN(c3cccc(Cl)c3)CC2)nc2ccccn12 [TRAZODONE]
fraction unbound at 5 µM [2, 9]: 0.057
Ratio [3]: 1
pKd [4]: 5.26
fraction unbound [5]: 0.0437
pKd (Albumin): 5.10
fraction unbound at 5 h, 5 µM [7]: 0.055

CN1CCN(CCCN2c3ccccc3Sc3ccc(C(F)(F)F)cc32)CC1 [TRIFLUOPERAZINE]
fraction unbound at 5 µM ([2]; Brain): 0.0018
pKd [4]: 6.41
fraction unbound [5]: 0.0033
fraction unbound at 5 h, 5 µM [7]: 0.0007

COc1ccc(C(CN(C)C)C2(O)CCCCC2)cc1 (stereo not drawn) [VENLAFAXINE]
fraction unbound at 5 µM ([2]; Brain): 0.123
pKd [4]: 4.42
fraction unbound [5]: 0.242
fraction unbound at 5 h, 5 µM [7]: 0.21

CC(=O)CC(c1ccccc1)c1c(O)c2ccccc2oc1=O (stereo not drawn) [WARFARIN]
pKd [4]: 4.09
fraction unbound [5]: 0.405
